Read-outs that look alike come from different tables or passages of the source.
What was measured:
Format in all cases: cell-based
HiBiT tagged GSPT1 = HiBiT tagged GSPT1 (Homo sapiens, UniProt P15170+Q96SW2); experiment: GSPT1 degradation assay (HiBiT assay); conditions: 20 hours, maximum GSPT1 degradation; for Dmax: HT-1080, HT-1080 cells; for HiBiT GSPT1: Dmax: HT-1080 cells
Outline: (§1)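 HT-1080 cells stably expressing wild-type CRBN, GSPT1A(1-138)/G575N and HiBiT-tagged CK1α or GSPT1, ~10,000/well, treated with compound from 3.162×10^-4 μM to 10 μM (3.16-fold steps). HiBiT luminescence normalized to DMSO as percent of control.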

HiBiT tagged CK1α = HiBiT tagged CK1α (Homo sapiens, UniProt P48729+Q96SW2); experiment: CK1α degradation assay (HiBiT assay); conditions: 20 hours; for Dmax: HT-1080, HT-1080 cells; for Dmax / HiBiT CK1α: Dmax: maximum CK1α degradation; for DC50 / HiBiT CK1α: Dmax: HT-1080 cells; for DC50: concentration at 50% CK1α degradation
Outline: as §1

MV4-11 cells = experiment: MV4-11 cell proliferation assay (CTG cell viability); conditions: 120 hours, read-out: CTG cell viability assay_MV4-11: IC50
Experimental: MV4-11 Cell Proliferation Assay
The following is an example of an assay that can be used to determine the dose-dependent, anti-proliferative activity of CK1α degradating compounds in an AML cell line such as MV4-11 (ATCC Cat #CRL-9591).
MV4-11 cells were seeded into a 384-well plate (Cat #3764, Corning) pre-spotted with DMSO or test compounds. Increasing concentrations of test compounds (ranging from 1×10^−3 μM to 10 μM at a 3.162-fold increment in a 10-point dose response assay; ranging from 3.162×10^−4 μM to 10 μM at a 3.162-fold increment in a 11-point dose response assay) or DMSO were dispensed into an empty 384-well plate using an a D300e digital dispenser (Tecan) or an Echo Acoustic Liquid Handler (Beckman Coulter). About 2,000 cells in 50 μL of culture media (IMDM plus 10% heat-inactivated FBS) were seeded per well. Assay plates were incubated at 37° C. with 5% CO2 for 120 hours. After that, 20 μL of the CellTiter-Glo Luminescent Cell Viability Assay Reagent (Cat #G7573, Promega) was added to each well and incubated at room temperature for 30 minutes. Luminescence was then measured with an EnVision plate reader (PerkinElmer) or a PHERAstar plate reader (BMG LABTECH). All cell growth inhibition curves were processed using Collaborative Drug Discovery Vault softwares (Burlingame, CA, www.collaborativedrug.com).
Cell viability reads in compound-treated wells were normalized to that of DMSO control and expressed as Percent of Control (PoC, y). A four Parameter Logistic Model was used to determine the compound's EC50 and DC50, using the following equation:
[formula] • A==lowest cell viability read normalized to DMSO control in response to compound treatment, as determined by curve fit • B=cell viability read in DMSO control • C=EC50 • D=Hill Slope • x=compound concentration • EC50=the concentration of compound when y=(B−A)/2 • IC50=the concentration of the compound when y=50% of DMSO control • y=cell viability read normalized to DMSO control Ymin=(A/B)*100% • Ymin represents the lowest cell viability % that can be achieved by the compound treatment in the assay.

Chain of HiBiT tagged GSPT1 (P15170 whole entry): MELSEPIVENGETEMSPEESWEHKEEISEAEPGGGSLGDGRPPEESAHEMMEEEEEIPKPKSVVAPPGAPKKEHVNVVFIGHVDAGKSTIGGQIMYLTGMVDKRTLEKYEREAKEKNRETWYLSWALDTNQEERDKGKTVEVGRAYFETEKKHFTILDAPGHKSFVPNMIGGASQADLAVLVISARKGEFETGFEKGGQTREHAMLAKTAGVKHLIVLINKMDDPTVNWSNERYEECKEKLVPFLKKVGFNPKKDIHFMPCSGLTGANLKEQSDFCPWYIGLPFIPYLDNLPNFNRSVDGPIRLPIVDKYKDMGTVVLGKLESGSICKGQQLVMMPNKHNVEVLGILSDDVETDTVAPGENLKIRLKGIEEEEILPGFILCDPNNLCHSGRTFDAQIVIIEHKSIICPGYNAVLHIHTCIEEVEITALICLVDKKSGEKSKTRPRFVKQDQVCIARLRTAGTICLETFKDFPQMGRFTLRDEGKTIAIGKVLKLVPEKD
Chain of HiBiT tagged GSPT1 (Q96SW2 whole entry): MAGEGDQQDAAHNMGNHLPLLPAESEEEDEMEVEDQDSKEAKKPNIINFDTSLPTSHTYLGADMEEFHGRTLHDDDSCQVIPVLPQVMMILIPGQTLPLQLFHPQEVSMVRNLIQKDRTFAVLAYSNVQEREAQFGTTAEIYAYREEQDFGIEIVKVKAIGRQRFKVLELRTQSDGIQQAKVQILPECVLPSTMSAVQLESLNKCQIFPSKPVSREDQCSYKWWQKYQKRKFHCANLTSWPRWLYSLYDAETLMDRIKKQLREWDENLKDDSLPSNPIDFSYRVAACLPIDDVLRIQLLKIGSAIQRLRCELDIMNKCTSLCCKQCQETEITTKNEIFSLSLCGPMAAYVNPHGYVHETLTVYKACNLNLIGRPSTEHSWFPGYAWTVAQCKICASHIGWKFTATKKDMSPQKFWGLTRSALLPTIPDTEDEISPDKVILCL
Chain of HiBiT tagged GSPT1 (Q16531 whole entry partner): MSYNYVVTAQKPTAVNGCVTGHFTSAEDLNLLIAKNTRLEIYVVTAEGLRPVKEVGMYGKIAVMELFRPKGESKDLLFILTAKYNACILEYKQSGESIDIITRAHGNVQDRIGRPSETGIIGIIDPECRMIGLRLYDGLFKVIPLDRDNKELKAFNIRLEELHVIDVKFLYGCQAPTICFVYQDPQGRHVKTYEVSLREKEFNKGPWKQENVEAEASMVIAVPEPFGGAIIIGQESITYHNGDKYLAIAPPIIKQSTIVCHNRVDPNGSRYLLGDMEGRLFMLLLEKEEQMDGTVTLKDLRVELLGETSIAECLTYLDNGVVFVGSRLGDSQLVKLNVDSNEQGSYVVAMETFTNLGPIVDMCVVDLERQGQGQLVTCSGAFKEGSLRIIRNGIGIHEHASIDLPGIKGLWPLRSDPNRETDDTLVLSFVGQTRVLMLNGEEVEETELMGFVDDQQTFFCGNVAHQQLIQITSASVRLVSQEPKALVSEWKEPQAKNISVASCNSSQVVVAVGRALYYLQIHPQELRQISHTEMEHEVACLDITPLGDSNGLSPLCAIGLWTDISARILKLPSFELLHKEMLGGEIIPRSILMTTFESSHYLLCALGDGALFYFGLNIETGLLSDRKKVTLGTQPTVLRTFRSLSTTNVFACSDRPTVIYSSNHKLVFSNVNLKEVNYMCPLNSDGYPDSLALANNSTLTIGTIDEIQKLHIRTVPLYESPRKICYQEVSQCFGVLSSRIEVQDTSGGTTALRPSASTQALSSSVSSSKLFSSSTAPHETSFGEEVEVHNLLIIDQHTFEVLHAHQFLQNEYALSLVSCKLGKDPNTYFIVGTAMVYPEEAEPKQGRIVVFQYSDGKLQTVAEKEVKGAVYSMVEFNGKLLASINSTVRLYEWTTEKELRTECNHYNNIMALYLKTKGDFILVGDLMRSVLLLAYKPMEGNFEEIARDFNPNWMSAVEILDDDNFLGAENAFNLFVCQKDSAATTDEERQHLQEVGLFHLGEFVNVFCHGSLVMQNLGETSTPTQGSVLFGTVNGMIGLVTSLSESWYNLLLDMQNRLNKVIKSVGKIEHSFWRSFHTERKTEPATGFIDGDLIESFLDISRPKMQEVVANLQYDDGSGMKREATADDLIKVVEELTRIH
Chain of HiBiT tagged CK1α (P48729 whole entry): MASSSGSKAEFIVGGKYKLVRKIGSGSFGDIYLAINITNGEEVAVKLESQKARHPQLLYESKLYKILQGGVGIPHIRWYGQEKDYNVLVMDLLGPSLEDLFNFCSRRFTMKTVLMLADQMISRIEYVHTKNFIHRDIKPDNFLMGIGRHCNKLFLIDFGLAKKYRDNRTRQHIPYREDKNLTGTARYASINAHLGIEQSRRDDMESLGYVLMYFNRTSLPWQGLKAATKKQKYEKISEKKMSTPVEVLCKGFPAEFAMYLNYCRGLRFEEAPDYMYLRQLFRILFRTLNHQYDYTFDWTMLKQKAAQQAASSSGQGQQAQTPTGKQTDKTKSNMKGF
Chain of HiBiT tagged CK1α (Q96SW2 whole entry): as the sequence (Q96SW2 whole entry) above
Chain of HiBiT tagged CK1α (Q16531 whole entry partner): as the sequence (Q16531 whole entry partner) above

SMILES | Dmax (HiBiT tagged GSPT1) [%] | Dmax (HiBiT tagged CK1α) [%] | DC50 (HiBiT tagged CK1α) [nM] | IC50 (MV4-11 cells; Homo sapiens) [nM] | HiBiT GSPT1: Dmax (HiBiT tagged GSPT1) [%] | HiBiT CK1α: Dmax (HiBiT tagged CK1α) [%] | IC50 (MV4-11 cells) [nM]
O=C1CCC(N2Cc3cc(C(=O)N[C@H](c4ncc(Cl)cc4F)C4(F)CCC4)ccc3C2=O)C(=O)N1 (stereo in doubt) [Compound 89, N-((*R)-(5-chloro-3-fluoropyridin-2-yl)(1-fluorocyclobutyl)methyl)-2-(2,6-dioxopiperidin-3-yl)-1-oxoisoindoline-5-carboxamide] | 17.3 | 69 | 148 | 198 |  |  | 
O=C1CCC(N2Cc3cc(C(=O)N[C@H](c4ncc(Cl)cc4Cl)C4CCC4)ccc3C2=O)C(=O)N1 (stereo in doubt) [Compound 79, N-((*S)-cyclobutyl(3,5-dichloropyridin-2-yl)methyl)-2-(2,6-dioxopiperidin-3-yl)-1-oxoisoindoline-5-carboxamide] | 20.4 | 65.9 | 274 | 176 |  |  | 
O=C1CC[C@H](N2Cc3cc(C(=O)N[C@H](c4ccc(F)cc4)C4CCC4)ccc3C2=O)C(=O)N1 (single isomer, unassigned) [Compound 9, N—((*S)-cyclobutyl(4-fluorophenyl)methyl)-2-((S)-2,6-dioxopiperidin-3-yl)-1-oxoisoindoline-5-carboxamide] | 22.6 | 71.6 | 116 | 172 |  |  | 
O=C1CCC(N2Cc3cc(C(=O)N[C@H](c4ncccc4-c4ccc(F)cc4)C4CCC4)ccc3C2=O)C(=O)N1 (stereo in doubt) [Compound 83, N—((*S)-cyclobutyl(3-(4-fluorophenyl)pyridin-2-yl)methyl)-2-(2,6-dioxopiperidin-3-yl)-1-oxoisoindoline-5-carboxamide] | 14.4 | 66 | 115 | 27 |  |  | 
O=C1CC[C@@H](N2Cc3cc(C(=O)N[C@H](c4ccc(F)cc4)C4CCC4)ccc3C2=O)C(=O)N1 (relative stereo) [Compound 8, N—((*S)-cyclobutyl(4-fluorophenyl)methyl)-2-((R)-2,6-dioxopiperidin-3-yl)-1-oxoisoindoline-5-carboxamide] |  |  | 160 |  | 23.4 | 72.9 | 205
O=C1CCC(N2Cc3cc(C(=O)N[C@H](c4ccc(Cl)cc4)C4CCC4)ccc3C2=O)C(=O)N1 (stereo in doubt) [Compound 36, N-((*S)-(4-chlorophenyl)(cyclobutyl)methyl)-2-(2,6-dioxopiperidin-3-yl)-1-oxoisoindoline-5-carboxamide] | 24.6 | 65.8 | 66.7 | 128 |  |  | 
O=C1CCC(N2Cc3cc(C(=O)N[C@H](c4ncccc4Cl)C4(F)CCC4)ccc3C2=O)C(=O)N1 (stereo in doubt) [Compound 87, N-[(*R)-(3-chloro-2-pyridyl)-(1-fluorocyclobutyl)methyl]-2-(2,6-dioxo-3-piperidyl)-1-oxo-isoindoline-5-carboxamide] | 25 | 59.8 | 279 | 133 |  |  | 
O=C1CCC(N2Cc3cc(C(=O)N[C@H](c4ccc(Cl)cn4)C4CCC4)ccc3C2=O)C(=O)N1 (stereo in doubt) [Compound 76, N—((*S)-(5-chloropyridin-2-yl)(cyclobutyl)methyl)-2-(2,6-dioxopiperidin-3-yl)-1-oxoisoindoline-5-carboxamide] |  |  | 219 |  | 23.5 | 64.4 | 71
O=C1CCC(N2Cc3cc(C(=O)N[C@H](c4ccc(F)cn4)C4CCC4)ccc3C2=O)C(=O)N1 (stereo in doubt) [Compound 78, N-((*S)-cyclobutyl(5-fluoropyridin-2-yl)methyl)-2-(2,6-dioxopiperidin-3-yl)-1-oxoisoindoline-5-carboxamide] | 14.4 | 67.2 | 198 | 176 |  |  | 
